# Data as given in PubChem BioAssay (NCI).
#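 A five-concentration, 48-hour dose response in 96-well plates underlies each endpoint, interpolated linearly between surrounding concentrations. GI50 = concentration required for 50% inhibition of growth. TGI marks complete inhibition of growth.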
# Legend:
# Assay in all cases: DTP human tumour cell line panel, 48 h
# LOX IMVI melanoma = system: LOX IMVI melanoma
# HOP-92 NSCLC = system: HOP-92 NSCLC
# A498 renal = system: A498 renal
# SK-MEL-2 melanoma = system: SK-MEL-2 melanoma
# NCI-H460 lung = system: NCI-H460 lung
# K-562 leukemia = system: K-562 leukemia
# MDA-MB-435 = system: MDA-MB-435
# OVCAR-4 ovarian = system: OVCAR-4 ovarian
# MOLT-4 leukemia = system: MOLT-4 leukemia
# HS 578T breast = system: HS 578T breast
# SF-539 CNS = system: SF-539 CNS
# 786-0 renal = system: 786-0 renal
# HL-60(TB) leukemia = system: HL-60(TB) leukemia
# MCF7 breast = system: MCF7 breast
# ACHN renal = system: ACHN renal
# NCI/ADR-RES ovarian = system: NCI/ADR-RES ovarian
# SK-MEL-28 melanoma = system: SK-MEL-28 melanoma
# SNB-75 CNS = system: SNB-75 CNS
# HCC-2998 colon = system: HCC-2998 colon
# NCI-H226 lung = system: NCI-H226 lung
# MDA-MB-231 breast = system: MDA-MB-231 breast
# SNB-19 CNS = system: SNB-19 CNS
# NCI-H23 lung = system: NCI-H23 lung
# BT-549 breast = system: BT-549 breast
# TK-10 renal = system: TK-10 renal
# HCT-15 colon = system: HCT-15 colon
# NCI-H522 lung = system: NCI-H522 lung
# T-47D breast = system: T-47D breast
# UACC-257 melanoma = system: UACC-257 melanoma
compound,measurement,setting,value
C#C[C@]1(O)CC[C@H]2[C@@H]3CC=C4c5sc(N=C(N)N)nc5CC[C@]4(C)[C@H]3CC[C@@]21C,GI50,LOX IMVI melanoma,443 nM
same,TGI,LOX IMVI melanoma,1630 nM
same,GI50,HOP-92 NSCLC,842 nM
same,TGI,HOP-92 NSCLC,2370 nM
same,GI50,A498 renal,274 nM
same,TGI,A498 renal,1020 nM
same,GI50,SK-MEL-2 melanoma,787 nM
same,TGI,SK-MEL-2 melanoma,2360 nM
same,GI50,NCI-H460 lung,1050 nM
same,TGI,NCI-H460 lung,2500 nM
same,GI50,K-562 leukemia,354 nM
same,TGI,K-562 leukemia,1350 nM
same,GI50,MDA-MB-435,700 nM
same,TGI,MDA-MB-435,2010 nM
same,GI50,OVCAR-4 ovarian,1330 nM
same,TGI,OVCAR-4 ovarian,2750 nM
same,GI50,MOLT-4 leukemia,297 nM
same,TGI,MOLT-4 leukemia,1010 nM
same,GI50,HS 578T breast,243 nM
same,TGI,HS 578T breast,1110 nM
same,GI50,SF-539 CNS,233 nM
same,TGI,SF-539 CNS,1120 nM
same,GI50,786-0 renal,453 nM
same,TGI,786-0 renal,1810 nM
same,GI50,HL-60(TB) leukemia,425 nM
same,TGI,HL-60(TB) leukemia,1920 nM
same,GI50,MCF7 breast,391 nM
same,TGI,MCF7 breast,1880 nM
same,GI50,ACHN renal,971 nM
same,TGI,ACHN renal,2210 nM
same,GI50,NCI/ADR-RES ovarian,1440 nM
same,TGI,NCI/ADR-RES ovarian,3590 nM
same,GI50,SK-MEL-28 melanoma,400 nM
same,TGI,SK-MEL-28 melanoma,1610 nM
same,GI50,SNB-75 CNS,152 nM
same,TGI,SNB-75 CNS,1320 nM
same,GI50,HCC-2998 colon,1590 nM
same,TGI,HCC-2998 colon,3100 nM
same,GI50,NCI-H226 lung,1820 nM
same,TGI,NCI-H226 lung,3970 nM
same,GI50,MDA-MB-231 breast,1140 nM
same,TGI,MDA-MB-231 breast,2660 nM
same,GI50,SNB-19 CNS,1110 nM
same,TGI,SNB-19 CNS,2410 nM
same,GI50,NCI-H23 lung,1260 nM
same,TGI,NCI-H23 lung,2920 nM
same,GI50,BT-549 breast,1080 nM
same,TGI,BT-549 breast,2490 nM
same,GI50,TK-10 renal,1850 nM
same,TGI,TK-10 renal,3440 nM
same,GI50,HCT-15 colon,525 nM
same,TGI,HCT-15 colon,1980 nM
same,GI50,NCI-H522 lung,1630 nM
same,TGI,NCI-H522 lung,3670 nM
same,GI50,T-47D breast,1190 nM
same,TGI,T-47D breast,3160 nM
same,GI50,UACC-257 melanoma,369 nM
same,TGI,UACC-257 melanoma,1400 nM
